≈ marks a conversion by molar mass, not a printed value. Where two headings read alike, the source gives them in different places.
What was measured:
[1] = tested on: SARS-CoV-2 pseudovirus; assay: microbe, parasite or virus in culture; format: cell-based; settings: for EC50: A549-AT cells (ACE2 and TMPRSS2), luciferase signal, mean ± SEM of 3 tests, read-out: EC50, inhibition of SARS-CoV-2 pseudovirus entry in A549-AT cells
[2] = tested on: SARS-CoV-2 pseudovirus; assay: microbe, parasite or virus in culture; format: cell-based; settings: for EC50: Vero cells, luciferase signal, mean ± SEM of 3 tests, read-out: EC50, inhibition of SARS-CoV-2 pseudovirus entry in Vero cells
[3] = Cytotoxicity in mock-infected VeroE6 cells (XTT); format: cell-based, African green monkey; settings: African green monkey; mock-infected Vero E6 cells, three days, XTT
[4] = tested on: SARS-CoV-2; assay: microbe, parasite or virus in culture; format: cell-based; settings: for EC50: Severe acute respiratory syndrome coronavirus 2, Vero C1008, 72 h, Vero E6 cells, three days, XTT, read-out: EC50, CPE reduction, SARS-CoV-2 in Vero E6 cells
[5] = tested on: VeroE6 cells; assay: Cytotoxicity in mock-infected VeroE6 cells (XTT); format: cell-based, African green monkey; settings: mock-infected Vero E6 cells, three days, XTT
[6] = target: T1, human recombinant cathepsin L (Homo sapiens, UniProt P07711); assay: biochemical; format: biochemical; settings: read-out: Cathepsin L IC50; pH 5.5, Z-Phe-Arg-AMC substrate
T1 construct: made in house; host or cells: Escherichia coli
T1 sequence (P07711 114-333): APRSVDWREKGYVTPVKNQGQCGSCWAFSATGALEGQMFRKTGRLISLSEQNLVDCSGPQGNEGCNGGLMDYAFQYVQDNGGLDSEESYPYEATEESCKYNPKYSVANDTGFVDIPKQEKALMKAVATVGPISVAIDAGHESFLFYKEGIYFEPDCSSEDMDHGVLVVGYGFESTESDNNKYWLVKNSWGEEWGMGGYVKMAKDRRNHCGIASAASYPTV
Procedure: Cathepsin L inhibition was assessed as reported. Briefly, human recombinant cathepsin L was expressed in Escherichia coli[33]. Enzymatic activity was determined in 100 mM acetate buffer (pH 5.5) containing 0.1% PEG 8000, 5 mM cysteine and 1.5 mM EDTA. The enzyme was first activated in assay buffer for 5 min at 37 °C, after which it was added to the wells of a black microplate containing the Z-Phe-Arg-AMC substrate (Bachem) and compounds. Formation of the fluorescent cleavage product was monitored for 50 min at 37 °C, using a Tecan Infinit M1000 spectrofluorimeter set at 460 nm emission and 380 nm excitation wavelength. All assay mixtures contained 5% (v/v) DMSO and 0.01% Triton X-100 to prevent false-positive inhibition due to formation of compound aggregates. All measurements were performed in triplicate and repeated twice. The relative inhibition was calculated using the equation: Relative inhibition (%) = 100(1 − vi/vo), where vi and vo designate the reaction velocities in the presence and absence of inhibitor, respectively. IC50 values were determined from nine data points at different inhibitor concentrations.

[7] = tested on: HEL cells; assay: Cytotoxicity in mock-infected HEL cells (MTS); format: cell-based, human; settings: mock-infected HEL cells, MTS, mean of 2–3 tests
[8] = tested on: S. epidermidis; assay: microbe, parasite or virus in culture; format: cell-based; settings: Staphylococcus epidermidis
From the text: (§1) We determined the minimal inhibitory concentrations (MIC) of the teicoplanin conjugates for a large panel of Gram-positive bacterial strains, using vancomycin, unmodified teicoplanin, dalbavancin and oritavancin as reference compounds. […] The bacterial strains (see Suppl. Table S5 for all details) were selected to achieve maximum diversity of multidrug-resistance and include strains with known mechanisms of resistance to glycopeptides in clinical use. The S. epidermidis and S. haemolyticus strains resistant to dalbavancin and oritavancin were obtained in vitro from clinical isolates sensitive to the glycopeptide antibiotics.

[9] = tested on: E. faecium; assay: microbe, parasite or virus in culture; format: cell-based; settings: Enterococcus faecium
From the text: as §1

[10] = tested on: S. aureus; assay: MIC, broth microdilution; format: cell-based; settings: Staphylococcus aureus
From the text: as §1

[11] = tested on: S.pyogenes; assay: MIC, broth microdilution; format: cell-based; settings: Streptococcus pyogenes
From the text: as §1

[12] = tested on: E. faecalis; assay: MIC, broth microdilution; format: cell-based; settings: Enterococcus faecalis
From the text: as §1

[13] = tested on: S. haemolyticus; assay: MIC, broth microdilution; format: cell-based; settings: Staphylococcus haemolyticus
From the text: as §1

[14] = tested on: Calu-3 cells; assay: Cytotoxicity in mock-infected Calu-3 cells (XTT); settings: read-out: CC50, Calu-3 cells, three days
[15] = Severe acute respiratory syndrome-related coronavirus

CN(C)C(=O)COC(=O)Cc1ccc(OC(=O)c2ccc(NC(=N)N)cc2)cc1 [Camostat, camostat, reference compound]
EC50 [1, 15]: 0.49 ± 0.05 µM
EC50 [2, 15]: > 20 µM

OCCCC(F)(F)C(F)(F)C(F)(F)C(F)(F)C(F)(F)C(F)(F)F [Compound 9]
CC50 [3]: > 100 µM
EC50 [4]: > 100 µM
Reduction of the CPE of SARS-CoV-2 in VeroE6 cells (in words) [4]: not active

CC(=O)N[C@H]1[C@H](O[C@@H]2c3ccc(c(Cl)c3)Oc3cc4cc(c3O)Oc3ccc(cc3Cl)C[C@H]3NC(=O)[C@H](NC(=O)CCC(F)(F)C(F)(F)C(F)(F)C(F)(F)C(F)(F)C(F)(F)C(F)(F)C(F)(F)F)c5ccc(O)c(c5)Oc5cc(O)cc(c5)[C@H](NC3=O)C(=O)N[C@H]4C(=O)N[C@H]3C(=O)N[C@@H]2C(=O)N[C@H](C(=O)O)c2cc(O)cc(O)c2-c2cc3ccc2O)O[C@H](CO)[C@@H](O)[C@@H]1O [Compound 5]
CC50 [5]: > 100 µM
IC50 [6]: 52 ± 1 µM
CC50 [7]: > 100 µM
MIC ([8]; read-out: Average MIC value, S. epidermidis mecA, 6 strains): 1.4 µg/mL (≈ 0.746 µM)
MIC ([8]; read-out: MIC value, S.epidermidis ORI_R1, mecA): 4 µg/mL (≈ 2.13 µM)
MIC ([8]; read-out: MIC value, S.epidermidis ORI_R2, mecA): 1 µg/mL (≈ 0.533 µM)
MIC ([8]; read-out: MIC value, S.epidermidis ORI_R3, mecA): 2 µg/mL (≈ 1.07 µM)
MIC ([8]; read-out: MIC value, S.epidermidis ORI_R4, mecA): 0.5 µg/mL (≈ 0.266 µM)
MIC ([8]; read-out: MIC value, S.epidermidis TEI_R1, mecA): 0.5 µg/mL (≈ 0.266 µM)
MIC ([8]; read-out: MIC value, S.epidermidis TEI_R2, mecA): 0.5 µg/mL (≈ 0.266 µM)
MIC ([9]; read-out: Average MIC value, E. faecium VAN^R,TEI^R/VanA, 8 strains): > 8 µg/mL
MIC ([9]; read-out: Average MIC value, E. faecium VAN^S, TEI^S, 1 strain): 0.25 µg/mL (≈ 0.133 µM)
MIC ([9]; read-out: MIC value, E.faecium E335, VAN,TEI,LNZ/VanA): > 8 µg/mL
MIC ([9]; read-out: MIC value, E.faecium E355, VAN,TEI,LNZ/VanA): > 8 µg/mL
MIC ([9]; read-out: MIC value, E.faecium E832, VAN,TEI,LNZ/VanA): > 8 µg/mL
MIC ([9]; read-out: MIC value, E.faecium E854, VAN,TEI,LNZ/VanA): > 8 µg/mL
MIC ([9]; read-out: MIC value, E.faecium E859, VAN,TEI,LNZ/VanA): > 8 µg/mL
MIC ([9]; read-out: MIC value, E.faecium E1114, VAN,TEI,LNZ/VanA): > 8 µg/mL
MIC ([9]; read-out: MIC value, E.faecium E1131, VAN,TEI,LNZ/VanA): > 8 µg/mL
MIC ([9]; read-out: MIC value, E.faecium E1132, VAN,TEI,LNZ/VanA): > 8 µg/mL
MIC ([9]; read-out: MIC value, E.faecium TX0016): 0.25 µg/mL (≈ 0.133 µM)
MIC ([10]; ATCC 29213 / MSSA, read-out: MIC value, S. aureus ATCC29213, MSSA): 1 µg/mL (≈ 0.533 µM)
MIC ([10]; MRSA / USA300, read-out: MIC value, S. aureus USA300, CA-MRSA): 4 µg/mL (≈ 2.13 µM)
MIC ([10]; MRSA, read-out: Average MIC value, S. aureus CA-MRSA, 1 strain): 4 µg/mL (≈ 2.13 µM)
MIC ([10]; MRSA, read-out: Average MIC value, S. aureus MRSA, 7 strains): 2.57 µg/mL (≈ 1.37 µM)
MIC ([10]; MRSA, read-out: MIC value, S. aureus 73OL, MRSA): 2 µg/mL (≈ 1.07 µM)
MIC ([10]; MRSA, read-out: MIC value, S. aureus 214OL, MRSA): 4 µg/mL (≈ 2.13 µM)
MIC ([10]; MRSA, read-out: MIC value, S. aureus 1041OL, MRSA): 4 µg/mL (≈ 2.13 µM)
MIC ([10]; MRSA, read-out: MIC value, S. aureus A6918, MRSA): 2 µg/mL (≈ 1.07 µM)
MIC ([10]; MRSA, read-out: MIC value, S. aureus A6919, MRSA): 2 µg/mL (≈ 1.07 µM)
MIC ([10]; MRSA, read-out: MIC value, S. aureus Mu50, MRSA): 2 µg/mL (≈ 1.07 µM)
MIC ([10]; MRSA, read-out: MIC value, S. aureus N315, MRSA): 2 µg/mL (≈ 1.07 µM)
MIC ([10]; MSSA / NEWMAN, read-out: MIC value, S. aureus Newman, MSSA): 2 µg/mL (≈ 1.07 µM)
MIC ([10]; MSSA, read-out: Average MIC value, S. aureus MSSA, 4 strains): 1.75 µg/mL (≈ 0.933 µM)
MIC ([10]; MSSA, read-out: MIC value, S. aureus MSSA476, MSSA): 2 µg/mL (≈ 1.07 µM)
MIC ([10]; MSSA, read-out: MIC value, S. aureus SA564, MSSA): 2 µg/mL (≈ 1.07 µM)
MIC ([11]; read-out: MIC value, S.pyogenes H232): 0.25 µg/mL (≈ 0.133 µM)
MIC ([11]; read-out: MIC value, S.pyogenes H550): 0.25 µg/mL (≈ 0.133 µM)
MIC ([11]; read-out: MIC value, S.pyogenes H578): 0.25 µg/mL (≈ 0.133 µM)
MIC ([12]; read-out: Average MIC value, E. faecalis VAN^R,TEI^R/VanA, 1 strain): > 8 µg/mL
MIC ([12]; read-out: Average MIC value, E. faecalis VAN^S, TEI^S, 2 strains): 0.25 µg/mL (≈ 0.133 µM)
MIC ([12]; read-out: MIC value, E.faecalis JH2-2): 0.25 µg/mL (≈ 0.133 µM)
MIC ([12]; read-out: MIC value, E.faecalis OG1RF): 0.25 µg/mL (≈ 0.133 µM)
MIC ([12]; read-out: MIC value, E.faecalis V583, VAN,TEI/VanA): > 8 µg/mL
MIC ([13]; S. haemolyticus mecA, 6 strains, read-out: Average MIC value): 7 µg/mL (≈ 3.73 µM)
MIC ([13]; S.haemolyticus DALB_R1, mecA, read-out: MIC value): 8 µg/mL (≈ 4.26 µM)
MIC ([13]; S.haemolyticus DALB_R2, mecA, read-out: MIC value): 8 µg/mL (≈ 4.26 µM)
MIC ([13]; S.haemolyticus DALB_R3, mecA, read-out: MIC value): 8 µg/mL (≈ 4.26 µM)
MIC ([13]; S.haemolyticus DALB_R4, mecA, read-out: MIC value): 8 µg/mL (≈ 4.26 µM)
MIC ([13]; S.haemolyticus DALB_R5, mecA, read-out: MIC value): 2 µg/mL (≈ 1.07 µM)
MIC ([13]; S.haemolyticus ORI_R1, mecA, read-out: MIC value): 8 µg/mL (≈ 4.26 µM)
CC50 [14]: > 100 µM

CCOC(=O)[C@H]1O[C@@H]1C(=O)N[C@@H](CC(C)C)C(=O)NCCC(C)C [Compound E64d, reference compound]
EC50 [1]: > 20 µM
EC50 [2]: 1.3 ± 1.2 µM

OCCCC(F)(F)C(F)(F)C(F)(F)C(F)(F)C(F)(F)C(F)(F)C(F)(F)C(F)(F)F [Compound 13]
CC50 [3]: > 100 µM
EC50 [4]: > 100 µM
Reduction of the CPE of SARS-CoV-2 in VeroE6 cells (in words) [4]: not active

CCCCCCCCOC1C(OC)OC(COCCOCCOCCOCCOCc2cn(C3C(=O)NC4Cc5ccc(c(Cl)c5)Oc5cc6cc(c5O)Oc5ccc(cc5Cl)C(OC5OC(CO)C(O)C(O)C5NC(C)=O)C5NC(=O)C(NC(=O)C6NC(=O)C(NC4=O)c4cc(O)cc(c4)Oc4cc3ccc4O)c3ccc(O)c(c3)-c3c(O)cc(O)cc3C(C(=O)O)NC5=O)nn2)C(O)C1OCCCCCCCC (centres unmarked) [Compound 1]
CC50 [5]: > 100 µM
IC50 [6]: 49 ± 1 µM
CC50 [7]: > 100 µM
Inhibition of pseudovirus entry in A549-AT cells (in words) ([1]; A549-AT cells, TMPRSS2-mediated uptake): active, though less potent
Inhibition of pseudovirus entry in Vero cells (in words) ([2]; cathepsin-dependent endosomal pathway): highly effective
CC50 [14]: 75 ± 9 µM
